This is an account of results in patent US5081584A, “Computer-assisted design of anti-peptides based on the amino acid sequence of a target peptide” (United States of America, priority 1989, dated 1992).

Experiment [1] deals with target 13-mer (GP-1), amino terminus of a membrane glycoprotein. The experiment is described as follows: HPLAC zonal elution on column with immobilized target 13-mer (GP-1). Type of experiment: binding, rat. Conditions: for binding constants (in words): text summary of Table 4; for Km: zonal elution, immobilized GP-1, 100 mM NH4OAc pH 5.7, flow rate 1.0 ml/min, extrapolated to [P]=0, read-out: Equilibrium binding constant (dissociation constant) KM/P. As to the method: (§1) The recognition of the target peptide by the anti-sense peptides was evaluated by high performance affinity chroma tography (I. Chaiken, Ed., "Analytical Affinity Chromatography," CRC Press, Boca Raton, 1987). This system was chosen because it allows direct measurement of molecular interactions and it is not limited by either molecular size or by the need for a specialized detection system. The target 13-mer (GP-1) was immobilized on an affinity support system. The binding properties to the target peptide were evaluated by zonal elution methods (FIG. III) (Y. Shai et al, Biochem., 26:669 (1987)). The anti-sense recognition peptides were eluted on the sense column and the retardation volume of the peptide (V) was compared to the column void volume (Vo). Equilibrium binding constants were determined by loading varying amounts of the anti-sense peptides on the column and employing the equation: [formula] where KM/P represents the dissociation constant for the binding process,
MT is the amount of target peptide immobilized and
[P]represents the amount of recognition peptide eluted E. Swaisgood et al, Biochem., 25:4148 (1986)).
The KM/P values are obtained subsequent to extrapolation to [P]=0.
Values were obtained by zonal elution on a column with immobilized target
peptide (GP1) equilibrated with 100 mM NH4 OAc, pH = 5.7 with column
flow rate of 1.0 ml/min.

Experiment [2] deals with putative ATP binding region of the raf (raf 357-376) (Rattus norvegicus, UniProt P11345). The experiment is described as follows: HPLAC on immobilized raf ATP binding region. As to the method:
The values of the dissociation constants (KM/P) are obtained in 0.1 M NH4 CH3 COO pH 5.7.
as §1, with “The anti-sense recognition peptides were eluted on the sense column and the retardation volume of the peptide (V) was compared to the column void volume (Vo).” left out
In order to evaluate the general applicability of the complementary scoring program, a comparison was made between the DNA derived anti-sense peptide and a computer generated recognition-peptide. […] To compare the relative affinities of the DNA derived anti-sense peptide (FAR-[…]) and the computer generated recognition peptide (FARCG--[…]), the raf ATP binding region ([…]) was immobilized on an affinity support and the two anti-sense peptides evaluated by HPLAC techniques.

Ends that are not written are not given here.

Regarding AAQHGGGLGVQVE [CODON-1, AAQHGGGLGVQVE], in experiment [1], the “binding constants (in words)” value was “millimolar range” and the Km is 920 µM.
The like results for AAQHGRGFGIQIE [CODON-2] were, in that order, “millimolar range” and 460 µM.
As for FHGHISMPFAFVYSSKAAAA [FAR-CG], in experiment [2] (immobilized raf ATP binding region GSGSFGTVYKGKWHGDVAVK, 0.1 M NH4CH3COO pH 5.7, read-out: Equilibrium binding constant KM/P), the Km worked out at 8 µM. Also, the “fold higher affinity for the target peptide compared to the DNA derived anti-sense peptide” value in experiment [2] (relative to FAR) is listed as approximately 50 fold.
